Results: patent publication US20230094870A1, “CHEMILU[…] FOR TUBERCULOSIS” (priority 2020, published 2023)
Non-standard residues stand in square brackets, D forms with d. Residues, ends and D or L forms follow the SMILES beside them. *: point of attachment. X1 = COC1(c2ccc(/C=C/C(=O)O)c(OCc3ccc(N*)cc3)c2Cl)OOC12C1CC3CC(C1)CC2C3; Phe(4-Cl) = N[C@@H](Cc1ccc(Cl)cc1)C(=O)O; Igl = N[C@H](C(=O)O)C1Cc2ccccc2C1

Key:
[1] = test system: nontuberculous mycobacteria (NTM); test: Detection of Mtb versus nontuberculous mycobacteria cells with FLASH probe; conditions: IL values for millions or thousands of cells of each species, 1 h with FLASH
Mtb strain mc^26020 = assay type: cell-based, Mycobacterium tuberculosis; conditions: Mtb mc^26020 incubated with FLASH for 1 h
Mtb strain H37Rv = assay type: cell-based, Mycobacterium tuberculosis; conditions: Mtb H37Rv incubated with FLASH for 1 h
recombinant Hip1 enzyme = target: T1, recombinant Hip1 enzyme (Mycobacterium tuberculosis, UniProt P9WHR3); test: Hip1 activity measurement with FLASH probe (chemiluminescence); assay type: biochemical; conditions: total integrated luminescence after 1 h
T1 construct: Recombinant Hip1 was purified as previously described (Lentz et al., 2016); made in house
T1 sequence (P9WHR3 31-520): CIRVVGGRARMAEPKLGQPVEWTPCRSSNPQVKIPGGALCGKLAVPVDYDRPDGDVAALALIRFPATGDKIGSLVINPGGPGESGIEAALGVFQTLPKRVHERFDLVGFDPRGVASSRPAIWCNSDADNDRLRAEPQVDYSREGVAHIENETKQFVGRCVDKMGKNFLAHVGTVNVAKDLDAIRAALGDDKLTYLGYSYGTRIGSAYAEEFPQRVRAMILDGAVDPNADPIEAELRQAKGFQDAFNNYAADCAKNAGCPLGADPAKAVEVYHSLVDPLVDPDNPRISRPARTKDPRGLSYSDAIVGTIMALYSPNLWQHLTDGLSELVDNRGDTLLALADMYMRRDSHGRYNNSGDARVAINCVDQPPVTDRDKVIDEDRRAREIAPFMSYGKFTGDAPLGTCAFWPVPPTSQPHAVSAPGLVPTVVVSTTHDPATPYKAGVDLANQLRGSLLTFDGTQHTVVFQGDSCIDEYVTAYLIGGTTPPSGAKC

Compound: COC1(c2ccc(/C=C/C(=O)O)c(OCc3ccc(NC(=O)[C@H](CC(C)C)NC(=O)[C@H](CCCCN)NC(=O)[C@H](Cc4ccc(Cl)cc4)NC(=O)[C@@H](NC(C)=O)C4Cc5ccccc5C4)cc3)c2Cl)OOC12C1CC3CC(C1)CC2C3 (stereo partly shown) [FLASH] (Ac-[Igl][Phe(4-Cl)]KL-X1)
- sensitivity to Mtb compared to nontuberculous mycobacteria [1]: more sensitive to Mtb compared to common nontuberculous mycobacteria
- LOD, lowest number of bacterial cells that can be detected by the probe (Mtb strain mc^26020): ≤ 100,000 cells
- LOD, lowest number of bacterial cells that can be detected by the probe (Mtb strain H37Rv): ≤ 100,000 cells
- limit of detection (LOD) of Hip1 enzyme (recombinant Hip1 enzyme): ~2 pmol
